Assay results reported in article PMC11520566, “Discovery of pyrazole-based analogs as CDK2 inhibitors with apoptotic-inducing activity: design, synthesis and molecular dynamics study” (RSC Advances, 2024).
Like-named read-outs stand apart in the source and are kept apart here.

Tests used:
NCI 60 cell panel = assay: NCI 60 five dose assay, subpanel and full panel means; format: cell-based, human
SNB-19 = assay: NCI 60 five dose assay, CNS cancer; format: cell-based, human
HS 578T = assay: NCI 60 five dose assay, Breast cancer; format: cell-based, human
HCT-116 = assay: NCI 60 five dose assay, Colon cancer; format: cell-based, human
M14 = assay: NCI 60 five dose assay, Melanoma; format: cell-based, human
CAKI-1 = assay: NCI 60 five dose assay, Renal cancer; format: cell-based, human
NCI-H460 = assay: NCI 60 five dose assay, Non-small cell lung cancer; format: cell-based, human
BT-549 = assay: NCI 60 five dose assay, Breast cancer; format: cell-based, human
SK-MEL-2 = assay: NCI 60 five dose assay, Melanoma; format: cell-based, human
SN12C = assay: NCI 60 five dose assay, Renal cancer; format: cell-based, human
HCT-116 cells = assay: Flow cytometric analysis of apoptosis (Annexin V-FITC/PI); format: cell-based; conditions: 1.806 μM, 48 h
Method: For the detection of apoptosis in the treated cells, the Annexin V-FITC-apoptosis detection kit (PN IM3546) was used, followed by flow cytometric analysis according to the manufacturer's protocol. In this assay, HCT-116 cells were allowed to grow in a […] flask until 70–80% confluence. Then, the HCT-116 cells were treated with compound 4 for 48 h, followed by washing with PBS, and suspended in binding buffer. To […] of the cell suspension, […] of annexin V-FITC solution and […] of dissolved PI were added and incubated for 15 min in the dark. Then […] of ice-cold binding buffer was added and mixed gently. The flow cytometric analysis of the percentage of apoptotic cells was performed on a COULTER® EPICS® XL™ Flow Cytometer (USA).[35]

MCF7 = assay: NCI 60 five dose assay, Breast cancer; format: cell-based, human
CCRF-CEM = assay: NCI 60 five dose assay, Leukemia; format: cell-based, human
SK-MEL-28 = assay: NCI 60 five dose assay, Melanoma; format: cell-based, human
HOP-62 = assay: NCI 60 five dose assay, Non-small cell lung cancer; format: cell-based, human
MALME-3M = assay: NCI 60 five dose assay, Melanoma; format: cell-based, human; conditions: for Percent Growth: MALME-3M
[1] = Homo sapiens, read-out: LC50 (the source's name)

CC(=NNc1ccc(S(N)(=O)=O)cc1)c1ccc(NN=C2C(=O)NN=C2Nc2ccccc2)cc1 [Compound 4, 4-(2-(1-(4-(2-(5-oxo-3-(phenylamino)-1,5-dihydro-4H-pyrazol-4-ylidene)hydrazinyl)phenyl)ethylidene)hydrazinyl)benzene sulfonamide]
GI50 (NCI 60 cell panel; Colon cancer subpanel, read-out: MG-MID for GI50): 3.33 µM | GI50 (NCI 60 cell panel; Homo sapiens, 60 cell, Breast cancer subpanel, read-out: MG-MID for GI50): 2.36 µM | GI50 (NCI 60 cell panel; Homo sapiens, 60 cell, CNS cancer subpanel, read-out: MG-MID for GI50): 2.39 µM | GI50 (NCI 60 cell panel; Homo sapiens, 60 cell, Colon cancer subpanel, read-out: MG-MID for GI50): 3.33 µM | GI50 (NCI 60 cell panel; Homo sapiens, 60 cell, Leukemia subpanel, read-out: MG-MID for GI50): 2.42 µM | GI50 (NCI 60 cell panel; Homo sapiens, 60 cell, Melanoma subpanel, read-out: MG-MID for GI50): 2.47 µM | GI50 (NCI 60 cell panel; Homo sapiens, 60 cell, Non-small cell lung cancer subpanel, read-out: MG-MID for GI50): 4.79 µM | GI50 (NCI 60 cell panel; Homo sapiens, 60 cell, Ovarian cancer subpanel, read-out: MG-MID for GI50): 4.19 µM | GI50 (NCI 60 cell panel; Homo sapiens, 60 cell, Prostate cancer subpanel, read-out: MG-MID for GI50): 3.13 µM | GI50 (NCI 60 cell panel; Homo sapiens, 60 cell, Renal cancer subpanel, read-out: MG-MID for GI50): 9.18 µM | GI50 (NCI 60 cell panel; Homo sapiens, 60 cell, against almost the whole panel of cancer cell lines, read-out: GI50 range): 1.1 to 5.9 µM | GI50 (NCI 60 cell panel; Homo sapiens, 60 cell, average over all cell lines, read-out: Full panel MG-MID (GI50)): 3.81 µM | GI50 (NCI 60 cell panel; Homo sapiens, 60 cell, range over the nine subpanels, read-out: subpanel GI50 (MG-MID) range): 2.36 to 9.17 µM | GI50 (NCI 60 cell panel; Melanoma subpanel, read-out: MG-MID for GI50): 2.48 µM | GI50 (NCI 60 cell panel; Prostate cancer subpanel, read-out: MG-MID for GI50): 3.14 µM | Selectivity index (NCI 60 cell panel; full panel MG-MID / Breast cancer subpanel MG-MID): 1.614 | Selectivity index (NCI 60 cell panel; full panel MG-MID / CNS cancer subpanel MG-MID): 1.595 | Selectivity index (NCI 60 cell panel; full panel MG-MID / Colon cancer subpanel MG-MID): 1.143 | Selectivity index (NCI 60 cell panel; full panel MG-MID / Leukemia subpanel MG-MID): 1.574 | Selectivity index (NCI 60 cell panel; full panel MG-MID / Melanoma subpanel MG-MID): 1.539 | Selectivity index (NCI 60 cell panel; full panel MG-MID / Non-small cell lung cancer subpanel MG-MID): 0.795 | Selectivity index (NCI 60 cell panel; full panel MG-MID / Ovarian cancer subpanel MG-MID): 0.909 | Selectivity index (NCI 60 cell panel; full panel MG-MID / Prostate cancer subpanel MG-MID): 1.215 | Selectivity index (NCI 60 cell panel; full panel MG-MID / Renal cancer subpanel MG-MID): 0.415 | GI50 (SNB-19; Homo sapiens): 2.59 µM | CC50 (SNB-19; [1]): 29.6 µM | Percent Growth (SNB-19; Log10 Concentration -4.0 Molar): -100% | Percent Growth (SNB-19; Log10 Concentration -5.0 Molar): -5% | Percent Growth (SNB-19; Log10 Concentration -6.0 Molar): 89% | Percent Growth (SNB-19; Log10 Concentration -7.0 Molar): 94% | Percent Growth (SNB-19; Log10 Concentration -8.0 Molar): 91% | GI50 (HS 578T; Homo sapiens): 3.31 µM | CC50 (HS 578T; [1]): > 100 µM | Percent Growth (HS 578T; Log10 Concentration -4.0 Molar): -28% | Percent Growth (HS 578T; Log10 Concentration -5.0 Molar): 11% | Percent Growth (HS 578T; Log10 Concentration -6.0 Molar): 92% | Percent Growth (HS 578T; Log10 Concentration -7.0 Molar): 93% | Percent Growth (HS 578T; Log10 Concentration -8.0 Molar): 85% | GI50 (HCT-116; Homo sapiens): 3.04 µM | CC50 (HCT-116; [1]): 32 µM | Percent Growth (HCT-116; Log10 Concentration -4.0 Molar): -100% | Percent Growth (HCT-116; Log10 Concentration -5.0 Molar): 1% | Percent Growth (HCT-116; Log10 Concentration -6.0 Molar): 96% | Percent Growth (HCT-116; Log10 Concentration -7.0 Molar): 104% | Percent Growth (HCT-116; Log10 Concentration -8.0 Molar): 98% | GI50 (M14; Homo sapiens): 2.83 µM | CC50 (M14; [1]): 35.1 µM | Percent Growth (M14; Log10 Concentration -4.0 Molar): -80% | Percent Growth (M14; Log10 Concentration -5.0 Molar): -14% | Percent Growth (M14; Log10 Concentration -6.0 Molar): 103% | Percent Growth (M14; Log10 Concentration -7.0 Molar): 101% | Percent Growth (M14; Log10 Concentration -8.0 Molar): 93% | GI50 (CAKI-1; Homo sapiens): 12.5 µM | CC50 (CAKI-1; [1]): 50.1 µM | Percent Growth (CAKI-1; Log10 Concentration -4.0 Molar): -100% | Percent Growth (CAKI-1; Log10 Concentration -5.0 Molar): 66% | Percent Growth (CAKI-1; Log10 Concentration -6.0 Molar): 96% | Percent Growth (CAKI-1; Log10 Concentration -7.0 Molar): 102% | Percent Growth (CAKI-1; Log10 Concentration -8.0 Molar): 96% | GI50 (NCI-H460; Homo sapiens): 3.21 µM | CC50 (NCI-H460; [1]): 45.3 µM | Percent Growth (NCI-H460; Log10 Concentration -4.0 Molar): -78% | Percent Growth (NCI-H460; Log10 Concentration -5.0 Molar): 4% | Percent Growth (NCI-H460; Log10 Concentration -6.0 Molar): 97% | Percent Growth (NCI-H460; Log10 Concentration -7.0 Molar): 103% | Percent Growth (NCI-H460; Log10 Concentration -8.0 Molar): 102% | GI50 (BT-549; Homo sapiens): 2.83 µM | CC50 (BT-549; [1]): 31.1 µM | Percent Growth (BT-549; Log10 Concentration -4.0 Molar): -100% | Percent Growth (BT-549; Log10 Concentration -5.0 Molar): -1% | Percent Growth (BT-549; Log10 Concentration -6.0 Molar): 92% | Percent Growth (BT-549; Log10 Concentration -7.0 Molar): 105% | Percent Growth (BT-549; Log10 Concentration -8.0 Molar): 94% | GI50 (SK-MEL-2; Homo sapiens): 2.11 µM | CC50 (SK-MEL-2; [1]): 9.1 µM | Percent Growth (SK-MEL-2; Log10 Concentration -4.0 Molar): -96% | Percent Growth (SK-MEL-2; Log10 Concentration -5.0 Molar): -56% | Percent Growth (SK-MEL-2; Log10 Concentration -6.0 Molar): 101% | Percent Growth (SK-MEL-2; Log10 Concentration -7.0 Molar): 104% | Percent Growth (SK-MEL-2; Log10 Concentration -8.0 Molar): 98% | GI50 (SN12C; Homo sapiens): 2.38 µM | CC50 (SN12C; [1]): 23.5 µM | Percent Growth (SN12C; Log10 Concentration -4.0 Molar): -100% | Percent Growth (SN12C; Log10 Concentration -5.0 Molar): -21% | Percent Growth (SN12C; Log10 Concentration -6.0 Molar): 93% | Percent Growth (SN12C; Log10 Concentration -7.0 Molar): 92% | Percent Growth (SN12C; Log10 Concentration -8.0 Molar): 95% | Apoptosis, Late (HCT-116 cells; control 0.13): 15.81% | Apoptosis, Early (HCT-116 cells; control 0.35): 4.63% | Necrosis (HCT-116 cells; control 1.58): 7.21% | Apoptosis, Total (HCT-116 cells; control 2.06): 27.65% | GI50 (MCF7; Homo sapiens): 2.4 µM | CC50 (MCF7; [1]): 27.4 µM | Percent Growth (MCF7; Log10 Concentration -4.0 Molar): -97% | Percent Growth (MCF7; Log10 Concentration -5.0 Molar): -14% | Percent Growth (MCF7; Log10 Concentration -6.0 Molar): 89% | Percent Growth (MCF7; Log10 Concentration -7.0 Molar): 93% | Percent Growth (MCF7; Log10 Concentration -8.0 Molar): 93% | GI50 (CCRF-CEM; Homo sapiens): 2.63 µM | CC50 (CCRF-CEM; [1]): > 100 µM | Percent Growth (CCRF-CEM; Log10 Concentration -4.0 Molar): -31% | Percent Growth (CCRF-CEM; Log10 Concentration -5.0 Molar): -5% | Percent Growth (CCRF-CEM; Log10 Concentration -6.0 Molar): 90% | Percent Growth (CCRF-CEM; Log10 Concentration -7.0 Molar): 100% | Percent Growth (CCRF-CEM; Log10 Concentration -8.0 Molar): 98% | GI50 (SK-MEL-28; Homo sapiens): 1.91 µM | CC50 (SK-MEL-28; [1]): 6.99 µM | Percent Growth (SK-MEL-28; Log10 Concentration -4.0 Molar): -93% | Percent Growth (SK-MEL-28; Log10 Concentration -5.0 Molar): -78% | Percent Growth (SK-MEL-28; Log10 Concentration -6.0 Molar): 100% | Percent Growth (SK-MEL-28; Log10 Concentration -7.0 Molar): 109% | Percent Growth (SK-MEL-28; Log10 Concentration -8.0 Molar): 96% | GI50 (HOP-62; Homo sapiens): 2.05 µM | CC50 (HOP-62; [1]): 30.3 µM | Percent Growth (HOP-62; Log10 Concentration -4.0 Molar): -78% | Percent Growth (HOP-62; Log10 Concentration -5.0 Molar): -24% | Percent Growth (HOP-62; Log10 Concentration -6.0 Molar): 84% | Percent Growth (HOP-62; Log10 Concentration -7.0 Molar): 95% | Percent Growth (HOP-62; Log10 Concentration -8.0 Molar): 91% | GI50 (MALME-3M; Homo sapiens, Malme-3M): 1.98 µM | CC50 (MALME-3M; Homo sapiens, Malme-3M, read-out: LC50 (the source's name)): 7.49 µM | Percent Growth (MALME-3M; Log10 Concentration -4.0 Molar): -100% | Percent Growth (MALME-3M; Log10 Concentration -5.0 Molar): -72% | Percent Growth (MALME-3M; Log10 Concentration -6.0 Molar): 102% | Percent Growth (MALME-3M; Log10 Concentration -7.0 Molar): 97% | Percent Growth (MALME-3M; Log10 Concentration -8.0 Molar): 89%
